Laboratory results reported in patent US9421204B2, “Oligomer modified diaromatic substituted compounds” (priority 2010, dated 2016).
Read-outs that look alike come from different tables or passages of the source.

Assays:
HIV-1RF = experiment: Anti-HIV-1 cytoprotection assay in CEM-SS cells; assay type: cell-based; conditions: for Therapeutic Index: CEM-SS/HIV-1RF; for EC50: CEM-SS cells, XTT, read-out: CEM-SS/HIV-1RF EC50
Experimental: Cell Preparation—CEM-SS cells were passaged in T-75 flasks prior to use in the antiviral assay. On the day preceding the assay, the cells were split 1:2 to assure they were in an exponential growth phase at the time of infection. Total cell and viability quantification was performed using a hemocytometer and Trypan Blue dye exclusion. […] The cells were resuspended at 5×10^4 cells per ml in tissue culture medium and added to the drug containing microtiter plates in a volume of 50 μL.
Virus Preparation—The virus used for the assay was the lymphocyte-tropic virus strain HIV-IRF. The virus was obtained from the NIH AIDS Research and Reference Reagent Program and stock virus pools were produced in CEM-SS cells. A pretitred aliquot of virus was removed from the freezer (−80° C.) and allowed to thaw slowly to room temperature in a biological safety cabinet.
Plate Format—Each plate contains cell control wells (cells only), virus control wells (cells plus virus), drug toxicity wells (cells plus drug only), drug colorimetric control wells (drug only) as well as experimental wells (drug plus cells plus virus). Samples were tested in triplicate with eleven half-log dilutions per compound.
Efficacy and Toxicity XTT—Following incubation at 37° C. in a 5% CO2 incubator, the test plates were stained with the tetrazolium dye XTT (2,3-bis(2-methoxy-4-nitro-5-sulfophenyl)-5-[(phenylamino)carbonyl]-2H-tetrazolium hydroxide). XTT-tetrazolium is metabolized by the mitochondrial enzymes of metabolically active cells to a soluble formazan product, allowing rapid quantitative analysis of the inhibition of HIV induced cell killing by anti-HIV test substances. XTT solution was prepared daily as a stock of 1 mg/mL in RPMI1640. Phenazine methosulfate (PMS) solution was prepared at 0.15 mg/mL in PBS and stored in the dark at −20° C. XTT/PMS stock was prepared immediately before use by adding 40 μL of PMS per ml of XTT solution. Fifty microliters of XTT/PMS was added to each well of the plate and the plate was re-incubated for 4 hours at 37° C. Plates were sealed with adhesive plate sealers and shaken gently or inverted several times to mix the soluble fosmazan product and the plate was read spectrophotometrically at 450/650 nm with a Molecular Devices Vmax plate reader.
Anti-HIV-1 Cytopathic Effects Inhibition Assay Evaluations: Eight compounds were evaluated against the RF strain of HIV-1 in CEM-SS cells using a 12 concentration dose response curve.
Data Analysis—Raw data was collected from the Softmax Pro 4.6 software and imported into a Excel XLFit4 spreadsheet for analysis by four parameter curve fit calculations. Both antiviral activity and toxicity are calculated.

in vitro = in vitro ADME; conditions: human; for Papp A→B at 2 hours, 10 μM / Papp B→A at 2 hours, 10 μM: pH 7.4; for Papp A→B at 2 hours, 10 μM: read-out: Average Papp, A→B; for Papp B→A at 2 hours, 10 μM: read-out: Average Papp, B→A; for efflux ratio at 2 hours, 10 μM: read-out: Efflux Ratio (B→A/A→B)
Experimental: Each determination was performed in duplicate.
Vr is the volume of the receiver compartment in cm^3.
Vd is the volume of the donor compartment in cm^3.
A is the area of the cell monolayer (1.13 cm^2 for 12-well Transwell®).
CN is the nominal dosing concentration of the dosing solution in μM.
CA is the average of the nominal dosing concentration and the measured 120 minute donor concentration in μM.
Cr^final is the receiver concentration in μM at the end of the incubation period.
Cd^final is the concentration of the donor in μM at the end of the incubation period.

[1] = Log P determination (Sirius GLpKa); assay type: physicochemical; conditions: Partition Log P, 25° C.; for logP: read-out: Log P
Experimental: The Sirius GLpKa instrument is used to determine the pKa and Log P. A blank standardization has to be completed first and passed in order to conduct the compound experiments. The solutions used by the instrument for the blank titration include water, a pH solution, and a surfactant (TRITON X-100). The TRITON X-100 was purchased commercially from Sirus. The 0.5% solution of TRITON X-100 was used in the experiment. In a 1 L volumetric flask 5 mls of TRITON X-100 is added and MILLI Q water to volume. The vessels used by the instrument were filled to ⅓ of their volume with each solution. Therefore the assay tray contains one vessel for water, pH solution, and surfactant for the blank run. The temperature of the water bath for the instrument is 25° C. The blank is calculated as an average of three “good” experiments. The “good” was denoted by a green check mark next to the assay number in the computer software. Once the blank was run successfully the instrument was ready to conduct the experiments. An additional method has to be set up for the Log P determinations for each compound. The conjugates are weighed into vessels in the same manner as for the previous experiment, i.e., 10% of the molecular weight. The vessels are placed in the assay tray of the instrument. The experimental parameters are entered into the computer. These included sample weight, molecular weight, assay type (Partition Log P), number of assays (three), and pKa value of the parent drug from the previous experiment. The run was started. There are three measurements for each run that are averaged to obtain the final results from the data points collected in the calculation software. All runs were denoted as “good” by the green check mark next to the assay number.

[2] = Human immunodeficiency virus 1, CEM-SS
[3] = Caco-2, pH 7.4, Test 1, 10 μM, read-out: Recovery (%) A→B
[4] = Caco-2, pH 7.4, Test 1, 10 μM, read-out: Recovery (%) B→A
[5] = Caco-2, pH 7.4, Test 2, 10 μM, read-out: Recovery (%) A→B
[6] = Caco-2, pH 7.4, Test 2, 10 μM, read-out: Recovery (%) B→A

Row | Compound | Therapeutic Index (HIV-1RF) | EC50 (HIV-1RF; [2]) [nM] | Papp A→B at 2 hours, 10 μM (in vitro; Caco-2, pH 7.4, Test 1, 10 μM) [×10⁻⁶ cm/s] | Papp B→A at 2 hours, 10 μM (in vitro; Caco-2, pH 7.4, Test 1, 10 μM) [×10⁻⁶ cm/s] | recovery at 2 h, 10 μM (in vitro; [3]) [%] | recovery at 2 h, 10 μM (in vitro; [4]) [%] | efflux ratio at 2 hours, 10 μM (in vitro; Caco-2, pH 7.4, Test 1) | Papp A→B at 2 hours, 10 μM (in vitro; Caco-2, pH 7.4, Test 2, 10 μM) [×10⁻⁶ cm/s] | Papp B→A at 2 hours, 10 μM (in vitro; Caco-2, pH 7.4, Test 2, 10 μM) [×10⁻⁶ cm/s] | recovery at 2 h, 10 μM (in vitro; [5]) [%] | recovery at 2 h, 10 μM (in vitro; [6]) [%] | efflux ratio at 2 hours, 10 μM (in vitro; Caco-2, pH 7.4, Test 2) | logP [1] | Log P [1] | EC50 (HIV-1RF) [nM]
1 | COCCOCCOCCOCCOCCOc1ccc2[nH]c(C(=O)N3CCN(c4ncccc4NC(C)C)CC3)cc2c1 [mPEG5-O-Delavirdine, 5-O-mPEG5-Delavirdine] | 19.0 | 760 | 29.9 | 39.1 | 71 | 65 | 1.3 | 33.3 | 38.9 | 97 | 95 | 1.2 |  |  | 
2 | COCCOCCOCCOCCOc1ccc2[nH]c(C(=O)N3CCN(c4ncccc4NC(C)C)CC3)cc2c1 [mPEG4-O-Delavirdine, 5-O-mPEG4-Delavirdine] | 213.8 | 160 | 39.3 | 34.8 | 74 | 65 | 0.9 |  |  |  |  |  | 2.22 |  | 
3 | COCCNc1ccc2[nH]c(C(=O)N3CCN(c4ncccc4NC(C)C)CC3)cc2c1 [5-mPEG1-NH-Delavirdine, 5-mPEG-NH-Delavirdine] | 1083.11 | 47 |  |  |  |  |  | 50.2 | 39.4 | 91 | 92 | 0.8 |  |  | 
4 | COCCOCCOCCOCCOCCOCCOc1ccc2[nH]c(C(=O)N3CCN(c4ncccc4NC(C)C)CC3)cc2c1 [mPEG6-O-Delavirdine, 5-O-mPEG6-Delavirdine] | 26.7 | 840 | 16.1 | 34.1 | 67 | 72 | 2.1 |  |  |  |  |  | 2.65 |  | 
5 | COCCOCCOCCOCCOCCOCCOCCOc1ccc2[nH]c(C(=O)N3CCN(c4ncccc4NC(C)C)CC3)cc2c1 [mPEG7-O-Delavirdine, 5-O-mPEG7-Delavirdine] | 76.1 | 470 | 14.2 | 36.6 | 74 | 69 | 2.6 | 23.1 | 39.3 | 94 | 95 | 1.7 | 2.73 |  | 
6 | COCCOCCOCCOc1ccc2[nH]c(C(=O)N3CCN(c4ncccc4NC(C)C)CC3)cc2c1 [mPEG3-O-Delavirdine, 5-O-mPEG3-Delavirdine] | 499.0 | 54 | 38.4 | 33.9 | 66 | 61 | 0.9 | 41.4 | 29.1 | 95 | 101 | 0.7 | 1.98 |  | 
7 | COCCOCCOCCOCCOCCOCCOCCOCCOc1ccc2[nH]c(C(=O)N3CCN(c4ncccc4NC(C)C)CC3)cc2c1 [mPEG8-O-Delavirdine, 5-O-mPEG8-Delavirdine] | 144.2 | 360 | 4.98 | 43.6 | 80 | 82 | 8.8 |  |  |  |  |  | 2.58 |  | 
8 | 5-O-mPEG9-Delavirdine [mPEG9-O-Delavirdine] | 323.1 |  |  |  |  |  |  |  |  |  |  |  |  | 2.328 | 130
9 | COCCOCCNc1ccc2[nH]c(C(=O)N3CCN(c4ncccc4NC(C)C)CC3)cc2c1 [5-mPEG2-NH-Delavirdine] | 3266.29 | 17 |  |  |  |  |  | 46.2 | 41.1 | 88 | 88 | 0.9 |  |  | 
